In patent US20090275539A1, “Nuclear Transcription Factors Regulators” (CTG PHARMA S.R.L., priority 2004, published 2009):

Experiments:
[1] = tested on: inducible nitric oxide synthase (iNOS); experiment: Zymosan-induced iNOS protein expression in Raw 264.7 macrophages (western blot); assay type: cell-based, murine; conditions: for INOS protein expression, band intensity: zymosan-stimulated Raw 264.7, 18 hrs
Method: (§1) For the screening approach it was decided to test the compounds object of the present invention and fulfilling the structural general criteria previously described for heme oxygenase-1 (OH-1) and inducible nitric oxide synthase (iNOS). The enzyme tests were performed as described by Vicente A M et al. (Br. J. Pharmacol. 2001, 133, 920-6). The formation of both these two enzymes was associated with the activation of transcription factors, and NF-kB particularly.
(§2) In brief, Raw 264.7 murine macrophage cell line were maintained in a proper culture medium supplemented with 10% fetal bovine serum, 2 mM L-glutamine and penicillin/streptomycin. Suspensions of zymosan A from Saccharomyces cerevisiae in saline were used. After incubation with zymosan and/or test compounds for 18 hrs, cells supernatants were collected to measure protein expression, by western blot analysis. After incubation, macrophages were lysed in 100 microliters of buffer (1% Triton X-100, 1% deoxicholic acid, 20 mM NaCl and 25 mM Tris, pH 7.4) and then centrifuged at 4° C. for 5 min at 10,000×g. The protein content was determined by the Bradford method using bovine serum albumin as standard. Cell lysate (40 micrograms of protein) was mixed with Laemmli sample buffer under reducing conditions. […] Membranes were incubated with specific antibodies: polyclonal antibody against iNOS (1/1000, Cayman Chemical) and anti-OH-1 monoclonal antibody (1/2000, Stressgen). Blots were washed and incubated with peroxidase-conjugated goat IgG (1/20,000). The immunoreactive bands were visualized by an enhanced chemiluminescence system and band intensity quantitated using computer-assisted densitometry.

IL-8 = experiment: Expression of NF-kB regulated cytokine IL-8 in HeLa cells (ELISA); assay type: cell-based; conditions: for IL-8 concentration in cell supernatant: 120′; for Inhibition of the production of IL-8: after 120 minutes
Method: (§3) The cells were stimulated with 100 μmol of compound described in example 6 with TNF (200 E/ml) or with PMA (50 ng/ml) and the concentration of IL-6 or IL-8 was measured in the cell supernatant at various interval using ELISA (British Biotechnology Products Ltd.).

NF-kB = experiment: NF-kB-CAT reporter gene assay (CAT activity); assay type: cell-based; conditions: test compound 100 μm; for NF-kB activity: % of CAT synthesis, TNF-stimulated: human TNF alpha 100 ng/ml
Method: The NF-kB-CAT reporter gene cell line (Lenardo M J et al., Cell 58, 227-9, 1989) and. L29/Ji6 cells (Fratelli M et al, Antioxidants & Redox Signalling 5, 229-235, 2003) were prepared as previously described. Human TNF alpha (100 ng/ml) was used. The chloramphenicol-acetyltransferase (CAT) activity was measured by adding 40 microliters of Tris-HCl buffer (250 mM, ph 7.5) and D-threo-[dichloroacetyl]1,2 ^14C chloramphenicol (10 microliters, 8.3×10^−2 mCi/sample) The reaction was started by the addition of n-butyryl coenzyme A. After 2 h at 37° C., the reaction was stopped by extraction with hexane/xylene (2:1). The upper organic phase containing the reaction product was then recovered, and radioactivity was counted on a beta-counter. The activity on NF-kB was expressed as […].

IL-6 = experiment: Expression of NF-kB regulated cytokine IL-6 in HeLa cells (ELISA); assay type: cell-based; conditions: for Inhibition of the production of IL-6: after 120 minutes
Method: as §3

heme oxygenase-1 (OH-1) = experiment: Zymosan-induced OH-1 protein expression in Raw 264.7 macrophages (western blot); assay type: cell-based, murine; conditions: for OH-1 protein expression, band intensity: zymosan-stimulated Raw 264.7, 18 hrs
Method: as §1, §2

[2] = zymosan-stimulated Raw 264.7, summary of table I

## CC(=O)Sc1ccccc1C(=O)Oc1ccc(CO[N+](=O)[O-])cc1 [ATANPE, acetyl thiosalicylic acid 4-(nitroxymethyl)phenyl ester]
[1]; concentration 10 μmol
  INOS protein expression, band intensity: 48 percentage with respect to zymosan
[1]; [2]
  Effect on iNOS formation (in words): inhibit iNOS formation
IL-8; PMA (50 ng/ml) + 100 μmol compound
  IL-8 concentration in cell supernatant: 12 pg/mL
IL-8; TNF (200 E/ml) + 100 μmol compound
  IL-8 concentration in cell supernatant: 6 pg/mL
IL-8; first of two values printed with '(PMA stimulation)'
  Inhibition of the production of IL-8: 90%
IL-8; second of two values printed with '(PMA stimulation)'
  Inhibition of the production of IL-8: 97%
NF-kB
  NF-kB activity: % of CAT synthesis, Basal: 31%
  NF-kB activity: % of CAT synthesis, TNF-stimulated: 26%
IL-6; PMA (50 ng/ml) + 100 μmol compound, 15′
  IL-6 concentration in cell supernatant: 920 pg/mL
IL-6; PMA (50 ng/ml) + 100 μmol compound, 120′
  IL-6 concentration in cell supernatant: 3138 pg/mL
IL-6; TNF (200 E/ml) + 100 μmol compound, 15′
  IL-6 concentration in cell supernatant: 945 pg/mL
IL-6; TNF (200 E/ml) + 100 μmol compound, 120′
  IL-6 concentration in cell supernatant: 1738 pg/mL
IL-6; first of two values printed with '(TNF stimulation)'
  Inhibition of the production of IL-6: 87%
IL-6; second of two values printed with '(TNF stimulation)'
  Inhibition of the production of IL-6: 74%
Heme oxygenase-1 (OH-1); concentration 10 μmol
  OH-1 protein expression, band intensity: 293 percentage with respect to zymosan
Heme oxygenase-1 (OH-1); [2]
  Effect on OH-1 production (in words): stimulate OH-1 production

## CC(=O)Oc1ccccc1C(=O)O [Aspirin, reference compound]
NF-kB
  NF-kB activity: % of CAT synthesis, Basal: 100%
  NF-kB activity: % of CAT synthesis, TNF-stimulated: 92%

## C[C@@H]1C[C@H]2[C@@H]3CCC4=CC(=O)C=C[C@]4(C)[C@@]3(F)[C@@H](O)C[C@]2(C)[C@@]1(O)C(=O)CO [Dexamethasone, dexamethasone]
[1]; concentration 1 μmol
  INOS protein expression, band intensity: 85 percentage with respect to zymosan
Heme oxygenase-1 (OH-1); concentration 1 μmol
  OH-1 protein expression, band intensity: 20 percentage with respect to zymosan

## COc1ccc2c(c1)c(CC(=O)O)c(C)n2C(=O)c1ccc(Cl)cc1 [Indomethacin, indomethacin]
[1]; concentration 1 μmol
  INOS protein expression, band intensity: 78 percentage with respect to zymosan
Heme oxygenase-1 (OH-1); concentration 1 μmol
  OH-1 protein expression, band intensity: 65 percentage with respect to zymosan

## CC(=O)N[C@@H](CS)C(=O)O [N-acetylcysteine]
[1]; concentration 100 μmol
  INOS protein expression, band intensity: 80 percentage with respect to zymosan
Heme oxygenase-1 (OH-1); concentration 100 μmol
  OH-1 protein expression, band intensity: 44 percentage with respect to zymosan

## CS(=O)(=O)Nc1ccc([N+](=O)[O-])cc1OC1CCCCC1 [NS398]
[1]; concentration 10 μmol
  INOS protein expression, band intensity: 120 percentage with respect to zymosan
Heme oxygenase-1 (OH-1); concentration 10 μmol
  OH-1 protein expression, band intensity: 72 percentage with respect to zymosan

## CC(c1cc2ccccc2s1)N(O)C(N)=O (stereo not shown) [Zileuton, zileuton]
[1]; concentration 10 μmol
  INOS protein expression, band intensity: 112 percentage with respect to zymosan
Heme oxygenase-1 (OH-1); concentration 10 μmol
  OH-1 protein expression, band intensity: 125 percentage with respect to zymosan
